# ChEMBL document CHEMBL3045446, “In vitro antimicrobial and antimycobacterial activity of some chalcones and their derivatives” (2013)
# Legend:
# Format in all cases: functional
# Staphylococcus aureus [1] = experiment: Antimicrobial activity against Staphylococcus aureus MTCC 96 assessed as growth inhibition after 24 hr by agar streak dilution method; conditions: MTCC 96, 24 h
# Escherichia coli [2] = experiment: Antimicrobial activity against Escherichia coli MTCC 739 assessed as diameter of growth inhibition zone after 24 hr; further: test concentration or dose not given here
# Salmonella typhi [3] = experiment: Antimicrobial activity against Salmonella enterica subsp. enterica serovar Typhi MTCC 733 assessed as diameter of growth inhibition zone after 24 hr
# Klebsiella pneumoniae [4] = experiment: Antimicrobial activity against Klebsiella pneumoniae MTCC 109 assessed as diameter of growth inhibition zone after 24 hr; further: test concentration or dose not given here
# Proteus vulgaris [5] = experiment: Antimicrobial activity against Proteus vulgaris MTCC 1771 assessed as diameter of growth inhibition zone after 24 hr
# Salmonella typhi [6] = experiment: Antimicrobial activity against Salmonella enterica subsp. enterica serovar Typhi MTCC 733 assessed as growth inhibition after 24 hr by agar streak dilution method; conditions: MTCC 733, 24 h
# Klebsiella pneumoniae [7] = experiment: Antimicrobial activity against Klebsiella pneumoniae MTCC 109 assessed as growth inhibition after 24 hr by agar streak dilution method; conditions: MTCC 109, 24 h
# Aspergillus fumigatus [8] = experiment: Antimicrobial activity against Aspergillus fumigatus MTCC 343 assessed as growth inhibition after 48 hr by agar streak dilution method; conditions: MTCC 343, 48 h
# Candida albicans [9] = experiment: Antimicrobial activity against Candida albicans MTCC 183 assessed as diameter of growth inhibition zone after 48 hr; further: test concentration or dose not given here
# Aspergillus niger [10] = experiment: Antimicrobial activity against Aspergillus niger MTCC 282 assessed as diameter of growth inhibition zone after 48 hr; further: test concentration or dose not given here
# Aspergillus fumigatus [11] = experiment: Antimicrobial activity against Aspergillus fumigatus MTCC 343 assessed as diameter of growth inhibition zone after 48 hr; further: test concentration or dose not given here
# [12] = test system: Mycobacterium tuberculosis; experiment: Antituberculosis activity against Mycobacterium tuberculosis H37Rv assessed as growth inhibition after 12 to 28 days by L-J MIC method; conditions: for MIC: Mycobacterium tuberculosis, H37Rv
# Bacillus cereus [13] = experiment: Antimicrobial activity against Bacillus cereus MTCC 430 assessed as growth inhibition after 24 hr by agar streak dilution method; conditions: MTCC 430, 24 h
# Staphylococcus aureus [14] = experiment: Antimicrobial activity against Staphylococcus aureus MTCC 96 assessed as diameter of growth inhibition zone after 24 hr; further: test concentration or dose not given here
# Shigella flexneri [15] = experiment: Antimicrobial activity against Shigella flexneri MTCC1457 assessed as growth inhibition after 24 hr by agar streak dilution method; conditions: MTCC1457, 24 h
# Escherichia coli [16] = experiment: Antimicrobial activity against Escherichia coli MTCC 739 assessed as growth inhibition after 24 hr by agar streak dilution method; conditions: MTCC 739, 24 h
# Aspergillus clavatus [17] = experiment: Antimicrobial activity against Aspergillus clavatus MTCC 1323 assessed as diameter of growth inhibition zone after 48 hr; further: test concentration or dose not given here
# Candida albicans [18] = experiment: Antimicrobial activity against Candida albicans MTCC 183 assessed as growth inhibition after 48 hr by agar streak dilution method; conditions: MTCC 183, 48 h
# Aspergillus niger [19] = experiment: Antimicrobial activity against Aspergillus niger MTCC 282 assessed as growth inhibition after 48 hr by agar streak dilution method; conditions: MTCC 282, 48 h
# Pseudomonas aeruginosa [20] = experiment: Antimicrobial activity against Pseudomonas aeruginosa MTCC 741 assessed as diameter of growth inhibition zone after 24 hr
# Bacillus cereus [21] = experiment: Antimicrobial activity against Bacillus cereus MTCC 430 assessed as diameter of growth inhibition zone after 24 hr; further: test concentration or dose not given here
# Shigella flexneri [22] = experiment: Antimicrobial activity against Shigella flexneri MTCC1457 assessed as diameter of growth inhibition zone after 24 hr
# Pseudomonas aeruginosa [23] = experiment: Antimicrobial activity against Pseudomonas aeruginosa MTCC 741 assessed as growth inhibition after 24 hr by agar streak dilution method; conditions: MTCC 741, 24 h
# Aspergillus clavatus [24] = experiment: Antimicrobial activity against Aspergillus clavatus MTCC 1323 assessed as growth inhibition after 48 hr by agar streak dilution method; conditions: MTCC 1323, 48 h
# Proteus vulgaris [25] = experiment: Antimicrobial activity against Proteus vulgaris MTCC 1771 assessed as growth inhibition after 24 hr by agar streak dilution method; conditions: MTCC 1771, 24 h
SMILES,MIC (Staphylococcus aureus [1]),diameter of the inhibition zone (DIZ) (Escherichia coli [2]),diameter of the inhibition zone (DIZ) (Salmonella typhi [3]),diameter of the inhibition zone (DIZ) (Klebsiella pneumoniae [4]),diameter of the inhibition zone (DIZ) (Proteus vulgaris [5]),MIC (Salmonella typhi [6]),MIC (Klebsiella pneumoniae [7]),MIC (Aspergillus fumigatus [8]),diameter of the inhibition zone (DIZ) (Candida albicans [9]),diameter of the inhibition zone (DIZ) (Aspergillus niger [10]),diameter of the inhibition zone (DIZ) (Aspergillus fumigatus [11]),growth inhibition (GI) [12],MIC [12],MIC (Bacillus cereus [13]),diameter of the inhibition zone (DIZ) (Staphylococcus aureus [14]),MIC (Shigella flexneri [15]),MIC (Escherichia coli [16]),diameter of the inhibition zone (DIZ) (Aspergillus clavatus [17]),MIC (Candida albicans [18]),MIC (Aspergillus niger [19]),further results
CC(=O)N1N=C(c2ccc(Nc3cc(=O)oc4ccccc34)cc2)CC1c1ccc(O)cc1O (stereo not drawn),50 µg/mL,20 mm,21 mm,23 mm,22 mm,25 µg/mL,6.25 µg/mL,12.5 µg/mL,17 mm,21 mm,24 mm,97%,250 µg/mL,50 µg/mL,19 mm,25 µg/mL,25 µg/mL,22 mm,50 µg/mL,25 µg/mL,diameter of the inhibition zone (DIZ) (Pseudomonas aeruginosa [20]): 22 mm; diameter of the inhibition zone (DIZ) (Bacillus cereus [21]): 20 mm; diameter of the inhibition zone (DIZ) (Shigella flexneri [22]): 20 mm; MIC (Pseudomonas aeruginosa [23]): 25 µg/mL; MIC (Aspergillus clavatus [24]): 25 µg/mL; MIC (Proteus vulgaris [25]): 12.5 µg/mL
CC(=O)N1N=C(c2ccc(Nc3cc(=O)oc4ccccc34)cc2)CC1c1ccc(Cl)cc1 (stereo not drawn),50 µg/mL,15 mm,18 mm,21 mm,19 mm,50 µg/mL,50 µg/mL,50 µg/mL,19 mm,16 mm,17 mm,97%,250 µg/mL,100 µg/mL,19 mm,50 µg/mL,100 µg/mL,15 mm,50 µg/mL,100 µg/mL,diameter of the inhibition zone (DIZ) (Pseudomonas aeruginosa [20]): 14 mm; diameter of the inhibition zone (DIZ) (Bacillus cereus [21]): 17 mm; diameter of the inhibition zone (DIZ) (Shigella flexneri [22]): 20 mm; MIC (Pseudomonas aeruginosa [23]): 100 µg/mL; MIC (Aspergillus clavatus [24]): 100 µg/mL; MIC (Proteus vulgaris [25]): 50 µg/mL
CC(=O)N1N=C(c2ccc(Nc3cc(=O)oc4ccccc34)cc2)CC1c1ccc(C)cc1 (stereo not drawn),100 µg/mL,12 mm,14 mm,13 mm,20 mm,100 µg/mL,100 µg/mL,100 µg/mL,14 mm,19 mm,15 mm,98%,200 µg/mL,100 µg/mL,16 mm,50 µg/mL,100 µg/mL,11 mm,100 µg/mL,50 µg/mL,diameter of the inhibition zone (DIZ) (Pseudomonas aeruginosa [20]): 16 mm; diameter of the inhibition zone (DIZ) (Bacillus cereus [21]): 16 mm; diameter of the inhibition zone (DIZ) (Shigella flexneri [22]): 20 mm; MIC (Pseudomonas aeruginosa [23]): 100 µg/mL; MIC (Aspergillus clavatus [24]): 100 µg/mL; MIC (Proteus vulgaris [25]): 50 µg/mL
Cc1ccc(-c2cc(-c3ccc(Nc4cc(=O)oc5ccccc45)cc3)nc(N)c2C#N)cc1,25 µg/mL,20 mm,21 mm,18 mm,24 mm,25 µg/mL,50 µg/mL,25 µg/mL,28 mm,24 mm,21 mm,98%,100 µg/mL,25 µg/mL,21 mm,12.5 µg/mL,25 µg/mL,20 mm,3.12 µg/mL,12.5 µg/mL,diameter of the inhibition zone (DIZ) (Pseudomonas aeruginosa [20]): 22 mm; diameter of the inhibition zone (DIZ) (Bacillus cereus [21]): 23 mm; diameter of the inhibition zone (DIZ) (Shigella flexneri [22]): 25 mm; MIC (Pseudomonas aeruginosa [23]): 12.5 µg/mL; MIC (Aspergillus clavatus [24]): 25 µg/mL; MIC (Proteus vulgaris [25]): 12.5 µg/mL
CC(=O)N1N=C(c2ccc(Nc3cc(=O)oc4ccccc34)cc2)CC1c1ccc([N+](=O)[O-])cc1 (stereo not drawn),100 µg/mL,14 mm,17 mm,13 mm,<10 mm,100 µg/mL,100 µg/mL,100 µg/mL,15 mm,14 mm,13 mm,96%,500 µg/mL,100 µg/mL,12 mm,100 µg/mL,100 µg/mL,17 mm,100 µg/mL,100 µg/mL,diameter of the inhibition zone (DIZ) (Pseudomonas aeruginosa [20]): 11 mm; diameter of the inhibition zone (DIZ) (Bacillus cereus [21]): 11 mm; diameter of the inhibition zone (DIZ) (Shigella flexneri [22]): 13 mm; MIC (Pseudomonas aeruginosa [23]): 100 µg/mL; MIC (Aspergillus clavatus [24]): 50 µg/mL; MIC (Proteus vulgaris [25]): 100 µg/mL
N#Cc1c(-c2ccc(Cl)cc2)cc(-c2ccc(Nc3cc(=O)oc4ccccc34)cc2)nc1N,12.5 µg/mL,21 mm,24 mm,25 mm,26 mm,12.5 µg/mL,6.25 µg/mL,12.5 µg/mL,26 mm,20 mm,24 mm,98%,100 µg/mL,25 µg/mL,24 mm,12.5 µg/mL,25 µg/mL,21 mm,6.25 µg/mL,25 µg/mL,diameter of the inhibition zone (DIZ) (Pseudomonas aeruginosa [20]): 19 mm; diameter of the inhibition zone (DIZ) (Bacillus cereus [21]): 21 mm; diameter of the inhibition zone (DIZ) (Shigella flexneri [22]): 23 mm; MIC (Pseudomonas aeruginosa [23]): 50 µg/mL; MIC (Aspergillus clavatus [24]): 25 µg/mL; MIC (Proteus vulgaris [25]): 6.25 µg/mL
O=C(/C=C/c1ccccc1Br)c1ccc(Nc2cc(=O)oc3ccccc23)cc1,100 µg/mL,11 mm,11 mm,14 mm,<10 mm,100 µg/mL,100 µg/mL,100 µg/mL,18 mm,12 mm,15 mm,97%,500 µg/mL,100 µg/mL,13 mm,100 µg/mL,100 µg/mL,12 mm,50 µg/mL,100 µg/mL,diameter of the inhibition zone (DIZ) (Pseudomonas aeruginosa [20]): <10 mm; diameter of the inhibition zone (DIZ) (Bacillus cereus [21]): 11 mm; diameter of the inhibition zone (DIZ) (Shigella flexneri [22]): 12 mm; MIC (Pseudomonas aeruginosa [23]): 100 µg/mL; MIC (Aspergillus clavatus [24]): 100 µg/mL; MIC (Proteus vulgaris [25]): 100 µg/mL
Nc1nc(-c2ccc(F)cc2)cc(-c2ccc(Nc3cc(=O)oc4ccccc34)cc2)n1,12.5 µg/mL,25 mm,23 mm,28 mm,25 mm,12.5 µg/mL,3.12 µg/mL,6.25 µg/mL,20 mm,22 mm,27 mm,99%,62.5 µg/mL,12.5 µg/mL,24 mm,12.5 µg/mL,6.25 µg/mL,26 mm,25 µg/mL,12.5 µg/mL,diameter of the inhibition zone (DIZ) (Pseudomonas aeruginosa [20]): 24 mm; diameter of the inhibition zone (DIZ) (Bacillus cereus [21]): 23 mm; diameter of the inhibition zone (DIZ) (Shigella flexneri [22]): 21 mm; MIC (Pseudomonas aeruginosa [23]): 12.5 µg/mL; MIC (Aspergillus clavatus [24]): 6.25 µg/mL; MIC (Proteus vulgaris [25]): 6.25 µg/mL
